Test systems include A549 NSCLC; A498 renal; HOP-92 NSCLC; OVCAR-3 ovarian; LOX IMVI melanoma; HCT-116 colon; OVCAR-8 ovarian; M14 melanoma; UACC-62 melanoma.
Test in all cases: growth of human tumour cells (NCI), 48 h

Molecules are shown by their SMILES.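 Step 1: Grow cells in 96-well plates. Step 2: Expose to compound for 48 hours at 5 concentrations. Step 3: Interpolate endpoints linearly; if unreached, use highest concentration. TGI: concentration producing complete growth inhibition.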

For the compound `N#CNC(N)=NCc1ccccc1`, the TGI with A549 NSCLC, with A498 renal, with HOP-92 NSCLC, in the experiment on OVCAR-3 ovarian, in the experiment with LOX IMVI melanoma and in the experiment on HCT-116 colon was over 100 µM throughout. The TGI with OVCAR-8 ovarian and with M14 melanoma was over 100 µM throughout.

On to `Cc1cc([N+](=O)[O-])c(C)c2c1[nH]c1ccc(Cl)cc12`, for which the TGI with A549 NSCLC, in the experiment with OVCAR-3 ovarian, in the experiment with LOX IMVI melanoma, in the experiment with HCT-116 colon, in the experiment with OVCAR-8 ovarian and with M14 melanoma was over 100 µM in each case.

On to `CN(C)CCNC(=O)c1cccc2c1Nc1ccccc1S2`, for which the TGI in the experiment on A549 NSCLC worked out at 28.8 µM; in the experiment on A498 renal, 24.5 µM; in the experiment with UACC-62 melanoma it was 28.4 µM; in the experiment with HOP-92 NSCLC, 8.96 µM; in the experiment on OVCAR-3 ovarian it was 28 µM; in the experiment on LOX IMVI melanoma, 26.2 µM. Besides, the TGI with HCT-116 colon was 25 µM; with OVCAR-8 ovarian, 30.2 µM.

For `CSCC[C@@H](NC(=O)[C@H](CC(C)C)NC(=O)C(Cc1cnc[nH]1)NC(=O)CNC(=O)[C@@H](NC(=O)[C@H](C)NC(=O)[C@H](Cc1c[nH]c2ccccc12)NC(=O)[C@H](CCC(N)=O)NC(=O)[C@@H](N)CC(N)=O)C(C)C)C(N)=O` (stereo not given in full), the TGI with A549 NSCLC, with A498 renal, in the experiment with UACC-62 melanoma, in the experiment on HOP-92 NSCLC, in the experiment with OVCAR-3 ovarian and in the experiment on LOX IMVI melanoma was over 100 µM throughout. For the same compound, the TGI in the experiment on HCT-116 colon and in the experiment on OVCAR-8 ovarian was over 100 µM in each case.

`CCOC(=O)C1C(c2ccc(Cl)cc2Cl)NC(c2ccc(C)cc2)C(C(=O)OC)S1(=O)=O` (stereo not given): the TGI in the experiment with A549 NSCLC, with A498 renal, with UACC-62 melanoma, with HOP-92 NSCLC, with OVCAR-3 ovarian and in the experiment with LOX IMVI melanoma was over 100 µM in each case. In addition, the TGI with OVCAR-8 ovarian and with M14 melanoma was over 100 µM throughout.

Take `COc1ccc(CNc2cnc3ccc(N)cc3n2)cc1`: the TGI was over 100 µM with A549 NSCLC; over 100 µM in the experiment with OVCAR-3 ovarian; over 100 µM in the experiment with LOX IMVI melanoma; 11.7 µM in the experiment on HCT-116 colon; over 100 µM in the experiment with OVCAR-8 ovarian; over 100 µM in the experiment on M14 melanoma.

Regarding `Nc1ncnc2c1nnn2C1C=CC(CP(=O)(O)O)C1` (stereo not given), the TGI in the experiment on A549 NSCLC, in the experiment with UACC-62 melanoma, in the experiment on OVCAR-3 ovarian, with LOX IMVI melanoma, in the experiment with HCT-116 colon and with OVCAR-8 ovarian was over 100 µM each time. Moreover, the TGI in the experiment on M14 melanoma was over 100 µM.

With `COc1cc(C)c(CC/C(C)=C/Cc2cc(O)ccc2O)c(C)c1C`, the TGI with A549 NSCLC, in the experiment with A498 renal, in the experiment with HOP-92 NSCLC, in the experiment with OVCAR-3 ovarian, in the experiment on HCT-116 colon and in the experiment on OVCAR-8 ovarian was over 25 µM each time. In addition, the TGI with M14 melanoma was over 25 µM.

Regarding `NCCN1CCCCCc2ccccc21`, the TGI in the experiment on A549 NSCLC, with A498 renal, with UACC-62 melanoma, with OVCAR-3 ovarian, in the experiment with LOX IMVI melanoma and in the experiment with HCT-116 colon was over 10 µM in each case. In the experiment on OVCAR-8 ovarian, the TGI is over 10 µM.

Turning to `CC(=O)NNc1nc(C)c(C(=O)NNC(=O)C(=O)Nc2ccc([N+](=O)[O-])cc2[N+](=O)[O-])s1`, the TGI with A549 NSCLC, in the experiment on A498 renal, in the experiment on UACC-62 melanoma, in the experiment with HOP-92 NSCLC, in the experiment on LOX IMVI melanoma and in the experiment with HCT-116 colon was over 100 µM throughout. In addition, the TGI with OVCAR-8 ovarian and with M14 melanoma was over 100 µM in each case.

In the case of `O=[N+]([O-])c1ccc(C[P+]2(c3ccccc3)CCCCC2)cc1`, the TGI in the experiment on A549 NSCLC, in the experiment on A498 renal, in the experiment on UACC-62 melanoma, in the experiment with OVCAR-3 ovarian, in the experiment on LOX IMVI melanoma and with HCT-116 colon was over 100 µM each time. The TGI in the experiment on OVCAR-8 ovarian and in the experiment on M14 melanoma was over 100 µM throughout.

As for `COc1ccc(N=Nc2c(-c3c(OC)cc4occc4c3OC)[nH]c(=O)c(C#N)c2C)cc1`, the TGI with A549 NSCLC, with UACC-62 melanoma, in the experiment with HOP-92 NSCLC, with OVCAR-3 ovarian, in the experiment on LOX IMVI melanoma and in the experiment on HCT-116 colon was over 100 µM throughout. Also, the TGI with OVCAR-8 ovarian and in the experiment with M14 melanoma was over 100 µM throughout.

`C[C@]12CCC3[C@@H](CCC45OC4C(=O)CC[C@]35C)C1Cc1cnn(-c3ccc(F)cc3)c1N2` (stereo not given in full): the TGI in the experiment with A549 NSCLC is over 100 µM; in the experiment with UACC-62 melanoma, 68.9 µM; with LOX IMVI melanoma, 31.9 µM; in the experiment with HCT-116 colon it was 29 µM; in the experiment on OVCAR-8 ovarian, over 100 µM; in the experiment on M14 melanoma, over 100 µM.

Source of the values: PubChem BioAssay (NCI).
